Measured values published in patent publication US12692247B2, “Phenyl- and pyridopyrazole derivatives as inhibitors of DDR1” (Redx Pharma Limited, priority 2021, dated 2026).

How the values were obtained:
Recombinant human DDR2 = molecular target: T1, Recombinant human DDR2 (Homo sapiens, UniProt Q16832); assay: LanthaScreen Eu Kinase Binding Assay, DDR2; details: recombinant human DDR2 (1.75 nM; aa427-855, GST tag), Kinase Tracer 178 10 nM, time-resolved fluorescence, at least two independent replicates; read-out: DDR2 pIC50 (converted)
T1 construct: DDR2 (1.75 nM; aa427-855 containing a GST tag)
T1 sequence (Q16832 427-855): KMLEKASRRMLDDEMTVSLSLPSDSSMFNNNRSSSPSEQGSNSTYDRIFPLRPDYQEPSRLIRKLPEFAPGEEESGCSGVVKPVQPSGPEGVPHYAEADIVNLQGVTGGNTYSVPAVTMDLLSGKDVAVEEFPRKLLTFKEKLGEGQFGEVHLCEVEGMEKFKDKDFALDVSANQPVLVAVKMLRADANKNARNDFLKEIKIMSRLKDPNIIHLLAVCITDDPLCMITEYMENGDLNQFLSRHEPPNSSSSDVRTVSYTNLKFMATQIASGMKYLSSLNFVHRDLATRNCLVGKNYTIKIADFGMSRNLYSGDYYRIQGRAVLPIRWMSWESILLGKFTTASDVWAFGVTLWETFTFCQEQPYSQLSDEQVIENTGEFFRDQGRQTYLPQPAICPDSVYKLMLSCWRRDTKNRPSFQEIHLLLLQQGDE
Method: (§1) DDR1 and DDR2 Biochemical Assay Method
(§2) The capacity of compounds to bind to DDR1 and DDR2 was quantified using a LanthaScreen Eu Kinase Binding Assay. Recombinant human DDR1 (2.5 nM; aa440-876 containing a GST tag) and DDR2 (1.75 nM; aa427-855 containing a GST tag) were diluted in assay buffer (50 mM HEPES pH7.3, 10 mM MgCl2, 1 mM EGTA and 0.01% Tween) with various concentrations of compound in a 384-well plate and a volume of 5 uL. After a 30-minute incubation at room temperature, 2.5 uL of Eu-anti GST antibody (diluted to 1 nM in assay buffer) plus Kinase Tracer 178 (diluted in assay buffer to 5 nM for DDR1 and 10 nM for DDR2) were added to the plate. Following 60-minute incubation at room temperature, time-resolved fluorescence was measured on a BMG Labtech PHERAstar plate reader. DMSO (1%) and reference compound (1 μM) were used to generate the Max and Min assay signals, respectively. Data was analysed using a four-parameter logistic model to calculate IC50 values, with at least two independent replicates were performed for each compound.

Recombinant human DDR1 = molecular target: T2, Recombinant human DDR1 (Homo sapiens, UniProt Q08345); assay: LanthaScreen Eu Kinase Binding Assay, DDR1; details: recombinant human DDR1 (2.5 nM; aa440-876, GST tag), Kinase Tracer 178 5 nM, time-resolved fluorescence, at least two independent replicates; read-out: DDR1 pIC50 (converted)
T2 construct: Recombinant human DDR1 (2.5 nM; aa440-876 containing a GST tag)
Method: as §1, §2

T2 sequence (Q08345 440-876 isoform Q08345-2): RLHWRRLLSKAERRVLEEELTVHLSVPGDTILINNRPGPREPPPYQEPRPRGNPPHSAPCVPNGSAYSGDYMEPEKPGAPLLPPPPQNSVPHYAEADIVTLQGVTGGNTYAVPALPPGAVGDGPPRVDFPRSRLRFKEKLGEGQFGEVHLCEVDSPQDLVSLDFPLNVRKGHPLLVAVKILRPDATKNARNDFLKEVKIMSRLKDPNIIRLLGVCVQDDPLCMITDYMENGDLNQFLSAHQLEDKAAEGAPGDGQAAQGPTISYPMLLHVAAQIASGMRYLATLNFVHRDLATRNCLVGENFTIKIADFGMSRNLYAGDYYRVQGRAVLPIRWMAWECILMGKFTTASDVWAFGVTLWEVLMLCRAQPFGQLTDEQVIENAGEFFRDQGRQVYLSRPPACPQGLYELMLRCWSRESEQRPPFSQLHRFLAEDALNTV

IC50 (Recombinant human DDR2) [nM] | IC50 (Recombinant human DDR1) [nM] | SMILES
≥ 1000 | 10 to 100 | O=C(Cn1ccc2cccc(Nc3ccc4cn[nH]c4c3)c2c1=O)NCC(F)(F)F [Example 2]
≥ 1000 | 100 to 1000 | Cn1cc(NC(=O)Cn2ccc3cccc(Nc4ccc5c(cnn5C)c4)c3c2=O)cn1 [Example 41, 2-[8-[(1-methylindazol-5-yl)amino]-1-oxo-2-isoquinolyl]-N-(1-methylpyrazol-4-yl)acetamide]
10 to 100 | < 10 | Cn1ncc2cc(Nc3cccc4ccn(CC(=O)Nc5cccc(C(C)(C)O)c5)c(=O)c34)ccc21 [Example 38, N-[3-(1-hydroxy-1-methyl-ethyl)phenyl]-2-[8-[(1-methylindazol-5-yl)amino]-1-oxo-2-isoquinolyl]acetamide]
100 to 1000 | 100 to 1000 | C[C@@H](NC(=O)Cn1ccc2cccc(Nc3ccc4c(cnn4C)c3)c2c1=O)C(F)(F)F [Example 20, 2-[8-[(1-methylindazol-5-yl)amino]-1-oxo-2-isoquinolyl]-N-[(1R)-2,2,2-trifluoro-1-methyl-ethyl]acetamide]
≥ 1000 | ≥ 1000 | Cn1ccnc1NC(=O)Cn1ccc2cccc(Nc3ccc4c(cnn4C)c3)c2c1=O [Example 77, N-(1-methylimidazol-2-yl)-2-[8-[(1-methylindazol-5-yl)amino]-1-oxo-2-isoquinolyl]acetamide]
10 to 100 | < 10 | C[C@H](NC(=O)Cn1ccc2cccc(Nc3ccc4c(cnn4C)c3)c2c1=O)C(F)(F)F [Example 19, 2-[8-[(1-methylindazol-5-yl)amino]-1-oxo-2-isoquinolyl]-N-[(1S)-2,2,2-trifluoro-1-methyl-ethyl]acetamide]
100 to 1000 | 10 to 100 | Cn1nccc1NC(=O)Cn1ccc2cccc(Nc3ccc4c(cnn4C)c3)c2c1=O [Example 36, 2-[8-[(1-methylindazol-5-yl)amino]-1-oxo-2-isoquinolyl]-N-(2-methylpyrazol-3-yl)acetamide]
10 to 100 | 10 to 100 | COc1cncc(NC(=O)Cn2ccc3cccc(Nc4ccc5c(cnn5C)c4)c3c2=O)c1 [Example 56, N-(5-methoxy-3-pyridyl)-2-[8-[(1-methylindazol-5-yl)amino]-1-oxo-2-isoquinolyl]acetamide]
100 to 1000 | 10 to 100 | CC(C)CNC(=O)Cn1ccc2cccc(Nc3ccc4c(cnn4C)c3)c2c1=O [Example 9, N-isobutyl-2-[8-[(1-methylindazol-5-yl)amino]-1-oxo-2-isoquinolyl]acetamide]
≥ 1000 | 100 to 1000 | CC(=O)C1CCCCN1C(=O)Cn1ccc2cccc(Nc3ccc4c(cnn4C)c3)c2c1=O (stereo not drawn) [Example 141, 2-[2-(2-acetyl-1-piperidyl)-2-oxoethyl]-8-[(1-methylindazol-5-yl)amino]isoquinolin-1-one]
≥ 1000 | 100 to 1000 | Cn1ccc(NC(=O)Cn2ccc3cccc(Nc4ccc5c(cnn5C)c4)c3c2=O)n1 [Example 34, 2-[8-[(1-methylindazol-5-yl)amino]-1-oxo-2-isoquinolyl]-N-(1-methylpyrazol-3-yl)acetamide]
100 to 1000 | 10 to 100 | CN(c1ccc2c(cnn2C)c1)c1cccc2ccn(CC(=O)Nc3cccc(C(F)(F)F)c3)c(=O)c12 [Example 144, 2-[8-[methyl-(1-methylindazol-5-yl)amino]-1-oxo-2-isoquinolyl]-N-[3-(trifluoromethyl)phenyl]acetamide]
100 to 1000 | 10 to 100 | Cc1n[nH]c2cc(Nc3cccc4ccn(CC(=O)Nc5cccc(C(F)(F)F)c5)c(=O)c34)ccc12 [Example 159, 2-[8-[(3-methyl-1H-indazol-6-yl)amino]-1-oxo-2-isoquinolyl]-N-[3-(trifluoromethyl)phenyl]acetamide]
10 to 100 | 10 to 100 | Cn1ncc2cc(Nc3cccc4ccn(CC(=O)Nc5cncc(C(F)(F)F)c5)c(=O)c34)cnc21 [Example 99, 2-[8-({1-methyl-1H-pyrazolo[3,4-b]pyridine-5-5-yl}amino)1-oxo-1,2-dihydroisoquinolin-2-yl]-N-[5-(trifluoromethyl)pyridine-3-yl]acetamide]
≥ 1000 | ≥ 1000 | CN1CCC(NC(=O)Cn2ccc3cccc(Nc4ccc5c(cnn5C)c4)c3c2=O)CC1 [Example 18, 2-[8-[(1-methylindazol-5-y)amino]-1-oxo-2-isoquinolyl]-N-(1-methyl-4-piperidyl)acetamide]
100 to 1000 | 10 to 100 | Cn1ncc2cc(Nc3cccc4ccn(CC(=O)Nc5cnco5)c(=O)c34)ccc21 [Example 95, 2-{8-[(1-methyl-1H-indazol-5-yl)amino]-1-oxo-1,2-dihydroisoquinolin-2-yl}-N-(1,3-oxazol-5-yl)acetamide]
10 to 100 | 10 to 100 | Cn1ncc2cc(Nc3cccc4ccn(CC(=O)Nc5cc(C(F)(F)F)no5)c(=O)c34)ccc21 [Example 48, 2-[8-[(1-methylindazol-5-yl)amino]-1-oxo-2-isoquinolyl]-N-[3-(trifluoromethyl)isoxazol-5-yl]acetamide]
≥ 1000 | 100 to 1000 | Cn1ncc2cc(Nc3cccc4ccn(CC(=O)N5CCCC5)c(=O)c34)ccc21 [Example 94, 8-[(1-methyl-1H-indazol-5-yl)amino]-2-[2-oxo-2-(pyrrolidin-1-yl)ethyl]-1,2-dihydroisoquinolin-1-one]
≥ 1000 | 100 to 1000 | Cn1ncc2cc(Nc3cccc4ccn(CC(=O)N5CCC[C@H]5C(C)(C)O)c(=O)c34)ccc21 [Example 60, 2-[2-[(2S)-2-(1-hydroxy-1-methyl-ethyl)pyrrolidin-1-yl]-2-oxo-ethyl]-8-[(1-methylindazol-5-yl)amino]isoquinolin-1-one]
100 to 1000 | 10 to 100 | Cn1ncc2cc(Nc3cccc4ccn(CC(=O)N5CCC[C@H]5C(F)(F)F)c(=O)c34)cnc21 [Example 78, 8-[(1-methylpyrazolo[3,4-b]pyridin-5-yl)amino]-2-[2-oxo-2-[(2S)-2-(trifluoromethyl)pyrrolidin-1-yl]ethyl]isoquinolin-1-one]
≥ 1000 | 100 to 1000 | Cn1ncc2cc(Nc3cc(F)cc4ccn(CC(=O)NCC(F)(F)F)c(=O)c34)ccc21 [Example 47, 2-[6-fluoro-8-[(1-methylindazol-5-yl)amino]-1-oxo-2-isoquinolyl]-N-(2,2,2-trifluoroethyl) acetamide]
10 to 100 | < 10 | CN(C)Cc1cc(NC(=O)Cn2ccc3cccc(Nc4ccc5c(cnn5C)c4)c3c2=O)cc(C(F)(F)F)c1 [Example 154, N-[3-[(dimethylamino)methyl]-5-(trifluoromethyl)phenyl]-2-[8-[(1-methylindazol-5-yl)amino]-1-oxo-2-isoquinolyl]acetamide]
100 to 1000 | 10 to 100 | Cn1ncc2cc(Nc3cccc4ccn(CC(=O)NC(c5ccccc5)C(F)(F)F)c(=O)c34)ccc21 (stereo not drawn) [Example 35, 2-[8-[(1-methylindazol-5-yl)amino]-1-oxo-2-isoquinolyl]-N-(2,2,2-trifluoro-1-phenyl-ethyl)acetamide]
≥ 1000 | 10 to 100 | Cn1ncc2cc(Nc3cccc4ccn(CC(=O)N5CCOC(C(F)(F)F)C5)c(=O)c34)ccc21 (stereo not drawn) [Example 43, 8-[(1-methylindazol-5-yl)aminio]-2-[2-oxo-2-[2-(trifluoromethyl)morpholin-4-yl]ethyl]isoquinolin-1-one]
10 to 100 | 10 to 100 | CC[C@H](NC(=O)Cn1ccc2cccc(Nc3ccc4c(cnn4C)c3)c2c1=O)C(F)(F)F [Example 45, 2-[8-[(1-methylindazol-5-yl)amino]-1-oxo-2-isoquinolyl]-N-[(1S)-1-(trifluoromethyl)propyl]acetamide]
≥ 1000 | 100 to 1000 | Cn1ncc2cc(Nc3cccc4ccn(CC(=O)Nc5cccnc5)c(=O)c34)ccc21 [Example 24, 2-[8-[(1-methylindazol-5-yl)amino]-1-oxo-2-isoquinolyl]-N-(3-pyridyl)acetamide]
100 to 1000 | 10 to 100 | Cn1ncc2cc(Nc3cccc4ccn(CC(=O)NCC(F)(F)F)c(=O)c34)ccc21 [Example 3, 2-[8-[(1-methylindazol-5-yl)amino]-1-oxo-2-isoquinolyl]-N-(2,2,2-trifluoroethyl)acetamide]
